How the values were obtained:
[1] = tested on: Septoria tritici, KUK-1-21 Strain; assay: Test for wheat leaf blotch, fluoroimide and/or DMI agent sprayed on wheat pots, lesion area index 17 days after inoculation; format: in vivo; conditions: wheat, 17 days after inoculation
Procedure: (§1) Test for Wheat Leaf Blotch (Septoria tritici, KUK-1-21 Strain):
(§2) Agrochemical liquids containing a predetermined concentration of fluoroimide and/or a predetermined concentration of each DMI agent were applied to wheat in a predetermined amount with a spray gun. After air drying, a suspension of fungus spore of Septoria tritici adjusted to 1.0×10^7 spores/ml was inoculated by spraying. After that, the wheat pots were kept in a growth chamber under a light condition of at 15° C. 100% RH to encourage the development of the disease. Seventeen days after the inoculation, the lesion area index (0-10) was determined for the evaluation of the control effect.
(§3) Control effect (%)=[(Disease index of no treatment area−Disease index of treatment area)/Disease index of no treatment area]×100 [Formula 1]
(§4) The expected effect (expected value E) by using an active ingredient in combination with each of other active ingredients in the above tests was determined by the following Colby formula (see COLBY, S. R., Weeds 15: 20-22 (1967)).
(§5) E(Expected effect)=(X+Y)−(X×Y/100) [Formula 2]
X=controlling effect of fungicide A alone
Y=controlling effect of fungicide B alone

[2] = tested on: Septoria tritici, KUK-1-21 Strain; assay: Test for wheat leaf blotch, fluoroimide and/or SDHI agent sprayed on wheat pots, lesion area index 21 days after inoculation; format: in vivo; conditions: for Controlling Effect as single agent: wheat, 21 days after inoculation; for Control effect Combination with fluoroimide / Control effect SDHI alone: 21 days; for Control effect SDHI alone: fluoroimide 0 ppm
Procedure: as §3, §4, §5, §1
as §2, with “SDHI” for “DMI”, “Twenty-one” for “Seventeen”, “set and” for “determined for”, “controlling effects and expected values are examined in” for “evaluation of”, “same manner as Example 1.” for “control effect.”

[3] = SDHI agent 1 ppm + fluoroimide 50 ppm
[4] = SDHI agent 1 ppm + fluoroimide 100 ppm
[5] = SDHI agent 3 ppm + fluoroimide 50 ppm
[6] = SDHI agent 3 ppm + fluoroimide 100 ppm
[7] = SDHI agent 10 ppm + fluoroimide 50 ppm
[8] = SDHI agent 10 ppm + fluoroimide 100 ppm

Row | SMILES | Controlling Effect as single agent ([1]; fluoroimide alone 50 ppm) [%] | Controlling Effect as single agent ([1]; fluoroimide alone 100 ppm) [%] | Controlling Effect as single agent ([2]; fluoroimide alone 50 ppm) [%] | Controlling Effect as single agent ([2]; fluoroimide alone 100 ppm) [%] | Control effect Expected value (Colby) [2, 3] [%] | Control effect Combination with fluoroimide [2, 3] [%] | Control effect Expected value (Colby) [2, 4] [%] | Control effect Combination with fluoroimide [2, 4] [%] | Control effect SDHI alone ([2]; SDHI agent 1 ppm) [%] | Control effect Expected value (Colby) [2, 5] [%] | Control effect Combination with fluoroimide [2, 5] [%] | Control effect Expected value (Colby) [2, 6] [%] | Control effect Combination with fluoroimide [2, 6] [%] | Control effect SDHI alone ([2]; SDHI agent 3 ppm) [%] | Control effect Expected value (Colby) [2, 7] [%] | Control effect Combination with fluoroimide [2, 7] [%] | Control effect Expected value (Colby) [2, 8] [%] | Control effect Combination with fluoroimide [2, 8] [%] | Control effect SDHI alone ([2]; SDHI agent 10 ppm) [%]
1 | O=C1C(Cl)=C(Cl)C(=O)N1c1ccc(F)cc1 [fluoroimide] | 25 | 50 | 5 | 25 |  |  |  |  |  |  |  |  |  |  |  |  |  |  | 
2 | CC(C)C1C2CCC1c1c(NC(=O)c3cn(C)nc3C(F)F)cccc12 (stereo not shown) [isopyrazam] |  |  |  |  | 19 | 60 | 36 | 20 | 15 | 76 | 85 | 81 | 85 | 75 | 100 | 100 | 100 | 100 | 100

— US20180084779A1, “PLANT DISEASE CONTROL AGENT AND USE THEREOF” (NIHON NOHYAKU CO., LTD., priority 2015, published 2018)
